Laboratory results published in the supplement of paper PMC10307832.

Key:
Test in all cases: relative viability (nuclei count vs DMSO), 5 days (fraction); higher = more cells survive
[1] = compound: Cc1ccccc1C(C(=O)NC1CCCCC1)N(C(=O)Cn1ccnc1C)c1cccc(F)c1 [IDH-C35] + Nc1nc2[nH]cc(CCc3ccc(C(=O)N[C@@H](CCC(=O)O)C(=O)O)cc3)c2c(=O)[nH]1 [Pemetrexed] (partner 0.2 µM)
Procedure, shortened: (§1)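 A single step with final 0.05% Triton X-100, 1% formaldehyde and 1 ug/ml Hoechst fixed the cells and stained nuclei 5 days after treatment. Lung cancer cell lines in 1536-well plates had been treated by pin tool the day after seeding with one drug alone or a fixed anchor-drug dose plus five library-drug doses (not always all listed) in √10 steps, and nuclei were counted on 4× images. Relative viability is the ratio of nuclei in treated wells to nuclei in vehicle wells, taken as the median of duplicate plates.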

[2] = compound: CC1=C(C(=NN1)C)CC2=C(C3=C(S2)N(C(=O)N(C3=O)C)CC(C)C)C(=O)N4C[C@@H](CO4)O + COc1cccc2cc(-c3nc([C@H]4CC[C@H](C(=O)O)CC4)n4ncnc(N)c34)[nH]c12 [OSI-027] (partner 0.5 µM)
Procedure, shortened: as §1

[3] = compound: Cc1ccccc1C(C(=O)NC1CCCCC1)N(C(=O)Cn1ccnc1C)c1cccc(F)c1 [IDH-C35]
Procedure, shortened: (§2)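 Hoechst staining, done together with fixation and permeabilisation, marked nuclei for 4× imaging and MetaXpress counting. This followed 5 days without medium change after lung cancer cell lines, kept overnight at 37 °C in 1536-well plates, were pinned with five library-drug doses (not always all listed) spaced by √10 on vehicle-anchored plates. Viability is the ratio of treated-well to vehicle-well nuclei, expressed as a median across plates. Plates passed only at control CV below 25% with at least one doubling.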

[4] = compound: CC1=C(C(=NN1)C)CC2=C(C3=C(S2)N(C(=O)N(C3=O)C)CC(C)C)C(=O)N4C[C@@H](CO4)O
Procedure, shortened: as §2

NCI-H2126
relative viability ([1]; first compound 0.08 µM): 0.68
relative viability ([1]; first compound 0.253 µM): 0.703
relative viability ([1]; first compound 0.8 µM): 0.696
relative viability ([1]; first compound 2.53 µM): 0.597
relative viability ([1]; first compound 8 µM): 0.668
relative viability ([2]; first compound 0.0025 µM): 0.78
relative viability ([2]; first compound 0.007906 µM): 0.669
relative viability ([2]; first compound 0.025 µM): 0.787
relative viability ([2]; first compound 0.07906 µM): 0.661
relative viability ([2]; first compound 0.25 µM): 0.684
relative viability ([3]; 0.08 µM): 1.01
relative viability ([3]; 0.253 µM): 1.02
relative viability ([3]; 0.8 µM): 0.965
relative viability ([3]; 2.53 µM): 0.937
relative viability ([3]; 8 µM): 0.92
relative viability ([4]; 0.0025 µM): 1.05
relative viability ([4]; 0.007906 µM): 1.01
relative viability ([4]; 0.025 µM): 1
relative viability ([4]; 0.07906 µM): 0.935
relative viability ([4]; 0.25 µM): 1.06

NCI-H2170
relative viability ([1]; first compound 0.08 µM): 0.277
relative viability ([1]; first compound 0.253 µM): 0.341
relative viability ([1]; first compound 0.8 µM): 0.265
relative viability ([1]; first compound 2.53 µM): 0.267
relative viability ([1]; first compound 8 µM): 0.262
relative viability ([2]; first compound 0.0025 µM): 0.736
relative viability ([2]; first compound 0.007906 µM): 0.792
relative viability ([2]; first compound 0.025 µM): 0.687
relative viability ([2]; first compound 0.07906 µM): 0.726
relative viability ([2]; first compound 0.25 µM): 0.681
relative viability ([3]; 0.08 µM): 0.971
relative viability ([3]; 0.253 µM): 0.948
relative viability ([3]; 0.8 µM): 1.02
relative viability ([3]; 2.53 µM): 0.867
relative viability ([3]; 8 µM): 0.983
relative viability ([4]; 0.0025 µM): 0.973
relative viability ([4]; 0.007906 µM): 1.02
relative viability ([4]; 0.025 µM): 0.966
relative viability ([4]; 0.07906 µM): 0.906
relative viability ([4]; 0.25 µM): 0.965

NCI-H2228
relative viability ([1]; first compound 0.08 µM): 0.307
relative viability ([1]; first compound 0.253 µM): 0.336
relative viability ([1]; first compound 0.8 µM): 0.332
relative viability ([1]; first compound 2.53 µM): 0.328
relative viability ([1]; first compound 8 µM): 0.3
relative viability ([2]; first compound 0.0025 µM): 0.68
relative viability ([2]; first compound 0.007906 µM): 0.61
relative viability ([2]; first compound 0.025 µM): 0.683
relative viability ([2]; first compound 0.07906 µM): 0.609
relative viability ([2]; first compound 0.25 µM): 0.649
relative viability ([3]; 0.08 µM): 0.87
relative viability ([3]; 0.253 µM): 0.935
relative viability ([3]; 0.8 µM): 0.968
relative viability ([3]; 2.53 µM): 1.01
relative viability ([3]; 8 µM): 0.935
relative viability ([4]; 0.0025 µM): 0.925
relative viability ([4]; 0.007906 µM): 1.24
relative viability ([4]; 0.025 µM): 1.13
relative viability ([4]; 0.07906 µM): 0.907
relative viability ([4]; 0.25 µM): 1.08

NCI-H2342
relative viability ([1]; first compound 0.08 µM): 0.78
relative viability ([1]; first compound 0.253 µM): 0.742
relative viability ([1]; first compound 0.8 µM): 0.775
relative viability ([1]; first compound 2.53 µM): 0.768
relative viability ([1]; first compound 8 µM): 0.679
relative viability ([2]; first compound 0.0025 µM): 0.588
relative viability ([2]; first compound 0.007906 µM): 0.584
relative viability ([2]; first compound 0.025 µM): 0.624
relative viability ([2]; first compound 0.07906 µM): 0.618
relative viability ([2]; first compound 0.25 µM): 0.587
relative viability ([3]; 0.08 µM): 1.02
relative viability ([3]; 0.253 µM): 0.957
relative viability ([3]; 0.8 µM): 0.901
relative viability ([3]; 2.53 µM): 0.908
relative viability ([3]; 8 µM): 0.891
relative viability ([4]; 0.0025 µM): 1.06
relative viability ([4]; 0.007906 µM): 0.935
relative viability ([4]; 0.025 µM): 1.03
relative viability ([4]; 0.07906 µM): 0.975
relative viability ([4]; 0.25 µM): 0.886

NCI-H2347
relative viability ([1]; first compound 0.08 µM): 0.424
relative viability ([1]; first compound 0.253 µM): 0.418
relative viability ([1]; first compound 0.8 µM): 0.452
relative viability ([1]; first compound 2.53 µM): 0.417
relative viability ([1]; first compound 8 µM): 0.43
relative viability ([2]; first compound 0.0025 µM): 0.472
relative viability ([2]; first compound 0.007906 µM): 0.496
relative viability ([2]; first compound 0.025 µM): 0.444
relative viability ([2]; first compound 0.07906 µM): 0.331
relative viability ([2]; first compound 0.25 µM): 0.354
relative viability ([3]; 0.08 µM): 1.04
relative viability ([3]; 0.253 µM): 1.06
relative viability ([3]; 0.8 µM): 0.937
relative viability ([3]; 2.53 µM): 1.02
relative viability ([3]; 8 µM): 0.997
relative viability ([4]; 0.0025 µM): 1.11
relative viability ([4]; 0.007906 µM): 1.2
relative viability ([4]; 0.025 µM): 0.949
relative viability ([4]; 0.07906 µM): 0.983
relative viability ([4]; 0.25 µM): 1.04

NCI-H2405
relative viability ([1]; first compound 0.08 µM): 1.05
relative viability ([1]; first compound 0.253 µM): 1.07
relative viability ([1]; first compound 0.8 µM): 0.93
relative viability ([1]; first compound 2.53 µM): 1.24
relative viability ([1]; first compound 8 µM): 1.08
relative viability ([2]; first compound 0.0025 µM): 0.703
relative viability ([2]; first compound 0.007906 µM): 0.645
relative viability ([2]; first compound 0.07906 µM): 0.62
relative viability ([2]; first compound 0.25 µM): 0.661
relative viability ([3]; 0.08 µM): 1.05
relative viability ([3]; 0.253 µM): 1
relative viability ([3]; 0.8 µM): 0.971
relative viability ([3]; 2.53 µM): 0.996
relative viability ([3]; 8 µM): 1.02
relative viability ([4]; 0.0025 µM): 1.1
relative viability ([4]; 0.007906 µM): 1.04
relative viability ([4]; 0.025 µM): 0.653
relative viability ([4]; 0.07906 µM): 0.921
relative viability ([4]; 0.25 µM): 0.962

NCI-H3122
relative viability ([1]; first compound 0.08 µM): 0.203
relative viability ([1]; first compound 0.253 µM): 0.182
relative viability ([1]; first compound 0.8 µM): 0.203
relative viability ([1]; first compound 2.53 µM): 0.207
relative viability ([1]; first compound 8 µM): 0.2
relative viability ([2]; first compound 0.0025 µM): 0.912
relative viability ([2]; first compound 0.007906 µM): 0.765
relative viability ([2]; first compound 0.025 µM): 0.927
relative viability ([2]; first compound 0.07906 µM): 1.04
relative viability ([2]; first compound 0.25 µM): 0.989
relative viability ([3]; 0.08 µM): 0.999
relative viability ([3]; 0.253 µM): 1.02
relative viability ([3]; 0.8 µM): 1.01
relative viability ([3]; 2.53 µM): 0.985
relative viability ([3]; 8 µM): 0.973
relative viability ([4]; 0.0025 µM): 1.01
relative viability ([4]; 0.007906 µM): 0.971
relative viability ([4]; 0.025 µM): 0.99
relative viability ([4]; 0.07906 µM): 1.01
relative viability ([4]; 0.25 µM): 1.03
